Test results reported in US20130347134A1, “TRANSGENIC VON WILLEBRAND FACTOR ANIMALS AND USES THEREOF” (priority 2012, published 2013).
Entries after “also recorded” stand apart in the source; their conditions may differ.

How the values were obtained:
[1] = system: human platelets; experiment: Ex vivo platelet adhesion, parallel-plate flow chamber, human whole blood over surface-immobilized VWF or VWF-A1, 1600 s^-1; type: cell-based; conditions: for translocation velocities of human platelets: on plasma VWF, mean±s.e.m, n=4
Protocol: Ex vivo platelet adhesion studies. Experiments were performed in a parallel-plate flow chamber as previously described (Offermanns, S., et al., 2006). For studies involving plasma VWF, a polyclonal anti-VWF antibody (Dako) was absorbed overnight (4° C.) to a six well tissue culture plate. Subsequently, the plate was washed and non-specific interactions blocked by the addition of TBS containing 3% BSA, pH 7.4 (1 hour, 37° C.). Human or murine plasma obtained from heparinized whole blood was added and the plates placed at 37° C. for an additional 2 hours. Generation, purification, and surface-immobilization of recombinant VWF-A1 proteins was performed as previously described (Doggett, T. A. et al., 2002). Both human and murine VWF-A1 constructs consist of amino acid residues 1238 to 1471, with a single intra-disulfide bond formed between residues 1272 and 1458 and were generated in bacteria. Citrated whole blood (150 μl) collected via cardiac puncture from anesthetized homozygous VWF^1326R>H or WT mice or from venopuncture from human volunteers was perfused over the immobilized substrates at a wall shear rate of 1600 s^−1 for 4 minutes, followed by washing with Tyrode's buffer under the identical flow conditions. The number of platelets attached per unit area (0.07 mm^2) and translocation velocities were determined by off-line analysis (Image-Pro Plus, Media Cybernetics). For GPIb α inhibition studies, the function-blocking mAb 6D1 (20 μg/ml) or mAb SZ2 (20 μg/ml; Beckman Coulter, Brea, Calif.) was added to anticoagulated human blood for 30 minutes prior to use. Experiments were performed in triplicate on two separate days. An ELISA was used to ensure equivalent coating concentration of plasma and recombinant proteins (Denis, C. et al., 1998).

[2] = system: thrombus; conditions: maximal effective dose 50 mg/kg the day before and 2 hours prior; cited from earlier work
[3] = biological target: ADP receptor on murine platelets (Mus musculus, UniProt Q9CPV9); conditions: FIG. 46A
Protocol: (§1) Tail bleeding assay. […] For studies involving PLAVIX, animals received a 50 mg/kg oral dose of the drug the day before and 2 hours prior to the administration of human platelets.

[4] = biological target: T1, αIIb β3 (Homo sapiens, UniProt P05106+P08514); conditions: intravenous bolus 0.25 mg/kg, then 0.125 μg/kg/min; cited from earlier work
T1 construct: endogenous in cells; host or cells: platelets of treated patients

[5] = system: human platelets; experiment: Tail bleeding assay, human platelet-induced hemostasis in homozygous VWF^1326R>H mice; type: in vivo, mouse; conditions: for human platelet-induced hemostatic clot formation: drug given to homozygous VWF^1326R>H mice receiving human platelets
Protocol: as §1
This assay provides an indirect measure of the ability of platelets and VWF to support hemostasis by interacting with the injured vessel wall. It also indirectly determines the function of multiple receptors and ligands on platelets that are required to form a hemostatic plug. […] It is performed by immersing the severed tip (10 mm) of the animal's tail in isotonic saline at 37° C. and monitoring the length of time required for bleeding to cease. Homozygous mutant mice will be infused with an equal volume of either saline or purified human platelets. Platelet specific antibodies or drugs will be administered as described above and their ability to prolong bleeding time evaluated.

[6] = biological target: murine αIIb β3 (Mus musculus, UniProt O54890+Q9QUM0); conditions: cited from earlier work
[7] = system: human platelets; experiment: Optical aggregometry, human platelets resuspended in platelet poor plasma of VWF^R1326H or VWF^HA1 mice; type: cell-based
Protocol: Although the R1326H mutation in murine VWF can support human platelet mediated hemostasis and thrombosis, there still exists a major difference between the human and mouse A1 domains. Specifically, only the human form can be activated to bind to GPIb alpha on human platelets. Ristocetin is an antibiotic that was taken off the market due to its ability to cause von Willebrand factor to bind the platelet receptor GPIb alpha, so when ristocetin is added to normal blood, it causes platelet clumping. […] Thus, murine VWF bearing the majority of the human A1 domain functions in manner more closely to that in humans, making it a better biological platform for studying human platelet function and the effects of antiplatelet agents for use in human beings.

[8] = system: murine platelet rich plasma; experiment: Ristocetin-induced platelet aggregation assay (RIPA), murine platelet rich plasma; type: cell-based, mouse
Protocol: In Ristocetin-induced platelet aggregation assays (RIPA), platelet GPIb a binding to wild type human VWF or mouse VWF was analyzed in the absence or presence of ristocetin as described previously (Inbal, et al., 1993). In this method, platelet rich plasma (PRP) is placed in a clear cuvette containing a stir bar and inserted into the aggregometer. Platelet aggregation is induced by the addition of ristocetin. […] In fact, only at concentrations of 2.5 mg/ml was there any evidence of murine platelet aggregation observed (about 30%, FIG. 10C).

[9] = system: mouse platelets; experiment: Parallel plate flow system, WT mouse blood over immobilized plasma VWF of VWF HA1 mice; type: cell-based
Source text: WT mouse blood was then infused over the immobilized substrate.

[10] = system: human platelets; experiment: Parallel plate flow system, human platelets over immobilized plasma VWF of VWF HA1 mice; type: cell-based

ADP receptor on murine platelets, sequence (Q9CPV9 whole entry): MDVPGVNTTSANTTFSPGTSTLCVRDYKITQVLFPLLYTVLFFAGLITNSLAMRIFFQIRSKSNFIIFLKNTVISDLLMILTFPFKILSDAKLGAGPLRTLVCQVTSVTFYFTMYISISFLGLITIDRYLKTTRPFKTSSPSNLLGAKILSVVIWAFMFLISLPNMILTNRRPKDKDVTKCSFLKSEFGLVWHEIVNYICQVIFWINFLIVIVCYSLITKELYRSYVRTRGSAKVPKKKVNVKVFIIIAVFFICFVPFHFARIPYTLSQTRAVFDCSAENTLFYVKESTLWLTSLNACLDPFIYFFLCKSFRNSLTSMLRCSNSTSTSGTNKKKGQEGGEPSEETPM
murine αIIb β3, sequence (Q9QUM0 32-1033): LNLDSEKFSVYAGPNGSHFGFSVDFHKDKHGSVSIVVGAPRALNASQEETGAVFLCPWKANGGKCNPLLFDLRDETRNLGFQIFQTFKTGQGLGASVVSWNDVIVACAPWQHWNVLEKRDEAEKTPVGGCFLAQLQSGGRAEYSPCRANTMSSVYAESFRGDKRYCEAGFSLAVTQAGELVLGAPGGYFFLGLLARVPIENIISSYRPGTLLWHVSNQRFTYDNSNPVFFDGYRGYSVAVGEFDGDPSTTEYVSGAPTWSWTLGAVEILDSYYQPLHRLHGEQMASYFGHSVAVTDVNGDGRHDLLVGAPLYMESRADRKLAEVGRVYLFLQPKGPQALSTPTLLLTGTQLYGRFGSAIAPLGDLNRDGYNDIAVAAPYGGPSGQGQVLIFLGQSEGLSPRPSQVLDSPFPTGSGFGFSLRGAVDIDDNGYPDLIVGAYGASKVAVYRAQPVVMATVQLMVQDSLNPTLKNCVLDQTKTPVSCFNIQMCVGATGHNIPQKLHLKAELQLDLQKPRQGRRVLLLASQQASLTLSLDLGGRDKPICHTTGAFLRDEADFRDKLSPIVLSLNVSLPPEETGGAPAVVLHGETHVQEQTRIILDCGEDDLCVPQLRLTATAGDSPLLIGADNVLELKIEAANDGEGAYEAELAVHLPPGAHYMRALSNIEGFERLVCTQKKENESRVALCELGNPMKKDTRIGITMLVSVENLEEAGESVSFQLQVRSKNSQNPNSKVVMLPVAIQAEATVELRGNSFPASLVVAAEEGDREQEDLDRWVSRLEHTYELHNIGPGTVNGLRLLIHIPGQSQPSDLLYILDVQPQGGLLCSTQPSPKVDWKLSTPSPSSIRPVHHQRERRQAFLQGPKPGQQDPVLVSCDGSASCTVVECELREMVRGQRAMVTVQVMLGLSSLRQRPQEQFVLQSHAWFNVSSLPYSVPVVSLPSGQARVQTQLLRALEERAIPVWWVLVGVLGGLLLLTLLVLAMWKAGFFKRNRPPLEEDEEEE
murine αIIb β3, sequence (O54890 26-787): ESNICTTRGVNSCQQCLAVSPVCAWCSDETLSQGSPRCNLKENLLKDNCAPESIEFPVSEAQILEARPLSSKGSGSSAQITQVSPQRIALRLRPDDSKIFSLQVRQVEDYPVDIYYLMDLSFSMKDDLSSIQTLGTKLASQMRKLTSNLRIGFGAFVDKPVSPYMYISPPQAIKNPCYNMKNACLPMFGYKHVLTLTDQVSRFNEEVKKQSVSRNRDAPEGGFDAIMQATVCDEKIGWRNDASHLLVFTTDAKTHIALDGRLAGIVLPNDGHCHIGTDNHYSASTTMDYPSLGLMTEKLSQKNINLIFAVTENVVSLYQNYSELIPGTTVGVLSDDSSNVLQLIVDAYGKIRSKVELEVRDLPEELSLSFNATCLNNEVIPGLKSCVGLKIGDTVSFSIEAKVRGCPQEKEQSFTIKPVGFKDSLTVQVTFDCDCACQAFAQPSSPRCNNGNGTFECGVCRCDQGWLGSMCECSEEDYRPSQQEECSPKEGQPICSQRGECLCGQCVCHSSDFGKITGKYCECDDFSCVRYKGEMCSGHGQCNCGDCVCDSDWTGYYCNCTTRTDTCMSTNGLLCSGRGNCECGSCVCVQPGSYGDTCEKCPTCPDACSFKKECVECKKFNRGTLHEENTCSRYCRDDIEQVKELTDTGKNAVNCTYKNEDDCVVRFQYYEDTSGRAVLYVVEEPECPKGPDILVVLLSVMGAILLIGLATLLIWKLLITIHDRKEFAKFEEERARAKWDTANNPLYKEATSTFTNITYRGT

murine plasma VWF: plasma VWF of wild type mice
human platelet deposition as compared with same-species controls ([1]; human whole blood, shear rate 1600 s^−1): 10%

VWF^1326R>H: full-length murine plasma VWF containing the 1326R>H mutation
translocation velocities of human platelets [1]: 3.5±0.1 μm/sec | human platelet accumulation on the surface-immobilized protein ([1]; shear rate 1600 s^−1): bound human platelets at levels comparable with its human counterpart

COC(=O)[C@H](c1ccccc1Cl)N1CCc2sccc2C1 [clopidogrel]
thrombus size and formation in mice [2]: reduce thrombus size and delay its formation | function of the ADP receptor on murine platelets [3]: can also block the function of the ADP receptor on murine platelets

abciximab
duration of disruption of platelet function [4]: 24 to 36 h | αIIb β3 occupancy [4]: > 80% | human platelet-induced hemostatic clot formation [5]: completely disrupted | human platelet-induced hemostatic clot formation ([5]; listed as ReoPro): prevented the formation of a hemostatic plug | mean bleeding time ([5]; given 5 minutes after infusion of human platelets, bolus 0.25 mg/kg then 0.125 μg/kg/min): 579 s | binding or disruption of function of murine αIIb β3 [6]: does not bind or disrupt the function of murine αIIb β3

ristocetin
human platelet aggregation ([7]; plasma from VWF^HA1 mice): cause human platelet aggregation comparable to its human counterpart | human platelet aggregation ([7]; plasma from VWF^R1326H animals): such was not the case | murine platelet aggregation ([8]; about 1.0 mg/ml): no such effect; also recorded: had no effect

thrombin
platelet aggregation ([8]; incubation of murine PRP with thrombin): > 90%

plasma VWF containing the human A1 domain: mouse VWF containing the majority of the human A1 domain (amino acids 1240P to 1481G)
mouse platelet interactions with the immobilized protein [9]: could not support any significant interactions | human platelet interactions with the immobilized protein [10]: could interact at levels observed for human plasma VWF

native human plasma VWF: human plasma VWF
translocation velocities of human platelets [1]: 3.2±0.1 μm/sec
